EP3925949A1, “AZIDO COMPOUNDS AND METHOD FOR MONITORING ACID CERAMIDASE ACTIVITY IN INTACT CELLS USING THEM” (Consejo Superior de Investigaciones Científicas (CSIC), priority 2020, dated 2021)

What was measured:
[1] = target: T1, human recombinant neutral ceramidase (NC) (Homo sapiens, UniProt Q9NR71); test: Hydrolysis of RBM5-177 by recombinant NC, UPLC-HRMS; type: biochemical; details: RBM5-177 5 µM, 30 min
T1 construct: purchased R&D Systems
Method: Cells were seeded at 5 × 10^5 cells/mL into 6 well plates (1 mL/well) and were allowed to adhere for 24 h. Medium was replaced with fresh medium containing RBM5-177, RBM5-019 or RBM2-37 (5 µM final concentration). After 30 min, medium was removed; cells were washed with 400 µL PBS and harvested with 400 µL Trypsin-EDTA and 600 µL of medium. NC recombinant enzyme, lysates from A375-AC overexpressing cells, MEF5 or microsomes from HeLa T-Rex ACER1-TET-ON and HeLa T-Rex […] activity buffer. Cell pellets were resuspended with 100 µL of H2O and mixed with 750 µL of methanol: chloroform, 2:1. Samples were heated at 48°C overnight and next day, 75 µL of 1 M KOH in methanol were added, followed by 2 h incubation at 37°C. Afterwards, the saponification was neutralised with 75 µL of 1 M acetic acid and solvent was removed using a Speed Vac Savant SPD131 DDA (Thermo Scientific). Sphingolipid extracts, fortified with internal standards (N-dodecanoylsphingosine, N-dodecanoylglucosylsphingosine, N-dodecanoylsphingosylphosphorylcoline and C17-sphinganine 0.2 nmol each) were solubilised in 150 µL of methanol. Samples were then centrifuged at 9,300 g for 3 min and 130 µL of the supernatant were injected to a Waters Aquity UPLC system connected to a Waters LCT Premier Orthogonal Accelerated Time of Flight Mass Spectrometer (Waters,Milford, MA, USA) operated in positive electrospray ionisation mode. […]

ACER3 = target: T2, ACER3 (Mus musculus, UniProt Q9D099); test: Hydrolysis of RBM5-177 by microsomes of ACER3 overexpressing cells, UPLC-HRMS; type: biochemical; details: microsomes from ACER3 overexpressing cells, RBM5-177 5 µM, 30 min
T2 construct: endogenous in cells; host or cells: MEF5 cells (NC-deficient)
T2 sequence (Q9D099 1-267): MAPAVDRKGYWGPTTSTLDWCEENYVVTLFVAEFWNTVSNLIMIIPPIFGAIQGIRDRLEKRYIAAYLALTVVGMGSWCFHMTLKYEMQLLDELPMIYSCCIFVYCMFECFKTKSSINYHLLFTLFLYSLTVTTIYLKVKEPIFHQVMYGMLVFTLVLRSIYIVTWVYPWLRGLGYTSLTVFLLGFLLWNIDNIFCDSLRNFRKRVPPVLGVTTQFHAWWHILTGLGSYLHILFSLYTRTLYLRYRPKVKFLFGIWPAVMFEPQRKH
Method: Cell lysates obtained from HeLa T-Rex ACER1-TET-ON, HeLa T-Rex ACER2-TET-ON and MEF5 overexpressing ACER3 cells were transferred to ultracentrifuge tubes and were spun at 100000 g for 1 h at 4°C. Pellets were resuspended in a 0.25 M saccharose solution and protein concentration was determined as specified below.
Cells were seeded at 5 × 10^5 cells/mL into 6 well plates (1 mL/well) and were allowed to adhere for 24 h. Medium was replaced with fresh medium containing RBM5-177, RBM5-019 or RBM2-37 (5 µM final concentration). After 30 min, medium was removed; cells were washed with 400 µL PBS and harvested with 400 µL Trypsin-EDTA and 600 µL of medium. NC recombinant enzyme, lysates from A375-AC overexpressing cells, MEF5 or microsomes from HeLa T-Rex ACER1-TET-ON and HeLa T-Rex […] activity buffer. Cell pellets were resuspended with 100 µL of H2O and mixed with 750 µL of methanol: chloroform, 2:1. Samples were heated at 48°C overnight and next day, 75 µL of 1 M KOH in methanol were added, followed by 2 h incubation at 37°C. Afterwards, the saponification was neutralised with 75 µL of 1 M acetic acid and solvent was removed using a Speed Vac Savant SPD131 DDA (Thermo Scientific). […]

T1 sequence (Q9NR71 whole entry): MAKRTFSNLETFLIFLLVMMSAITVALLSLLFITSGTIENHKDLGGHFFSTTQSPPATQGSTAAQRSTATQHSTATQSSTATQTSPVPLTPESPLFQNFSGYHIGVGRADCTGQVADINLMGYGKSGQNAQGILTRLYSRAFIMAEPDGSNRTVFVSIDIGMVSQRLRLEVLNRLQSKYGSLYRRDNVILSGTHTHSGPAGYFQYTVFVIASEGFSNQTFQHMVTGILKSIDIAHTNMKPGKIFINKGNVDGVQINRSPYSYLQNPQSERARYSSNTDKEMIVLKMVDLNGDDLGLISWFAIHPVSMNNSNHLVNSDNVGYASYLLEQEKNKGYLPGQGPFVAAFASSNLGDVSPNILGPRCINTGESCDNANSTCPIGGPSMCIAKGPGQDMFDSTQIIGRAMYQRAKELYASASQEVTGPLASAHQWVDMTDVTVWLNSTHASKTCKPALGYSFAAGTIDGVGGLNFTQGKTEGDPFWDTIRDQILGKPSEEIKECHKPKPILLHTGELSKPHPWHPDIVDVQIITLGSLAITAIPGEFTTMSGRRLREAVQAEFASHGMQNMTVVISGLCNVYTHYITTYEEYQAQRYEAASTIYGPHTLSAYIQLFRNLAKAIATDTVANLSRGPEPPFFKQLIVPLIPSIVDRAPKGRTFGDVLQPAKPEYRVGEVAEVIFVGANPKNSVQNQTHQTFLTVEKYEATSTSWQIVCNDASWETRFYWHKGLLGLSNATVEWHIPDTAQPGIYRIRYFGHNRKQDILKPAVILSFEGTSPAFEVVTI

SMILES: CCCCCCCC(=O)N[C@@H](C)[C@H](O)CCCCCCCCCCCCN=[N+]=[N-] [RBM5-177, N-((2S,3R)-15-azido-3-hydroxypentadecan-2-yl)octanamide]
- RBM5-19 formation (hydrolysis as substrate) [1]: transformed into the free amine only by AC
- RBM5-19 formation (hydrolysis as substrate) (ACER3): transformed into the free amine only by AC
